Measurements published in PubChem BioAssay (NCI).
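Five compound concentrations were applied to cells in 96-well plates for 48 hours; endpoints were derived by simple linear interpolation of the resulting dose-response curve. GI50: concentration for 50% inhibition of growth. TGI is the concentration that stops growth completely.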

Key:
Test in all cases: NCI tumour cell line growth inhibition, 48 h
A498 renal = system: A498 renal
CCRF-CEM leukemia = system: CCRF-CEM leukemia
HL-60(TB) leukemia = system: HL-60(TB) leukemia
SNB-19 CNS = system: SNB-19 CNS
RXF 393 renal = system: RXF 393 renal
OVCAR-8 ovarian = system: OVCAR-8 ovarian
EKVX NSCLC = system: EKVX NSCLC
NCI-H23 lung = system: NCI-H23 lung
RPMI-8226 leukemia = system: RPMI-8226 leukemia
MDA-MB-435 = system: MDA-MB-435

| Structure (SMILES) | TGI (A498 renal) [µM] | TGI (CCRF-CEM leukemia) [µM] | TGI (HL-60(TB) leukemia) [µM] | TGI (SNB-19 CNS) [µM] | TGI (RXF 393 renal) [µM] | TGI (OVCAR-8 ovarian) [µM] | TGI (EKVX NSCLC) [µM] | TGI (NCI-H23 lung) [µM] | TGI (RPMI-8226 leukemia) [µM] | GI50 (MDA-MB-435) [µM] | TGI (MDA-MB-435) [µM] | GI50 (CCRF-CEM leukemia) [µM] | GI50 (RPMI-8226 leukemia) [µM] | GI50 (SNB-19 CNS) [µM] | GI50 (RXF 393 renal) [µM] | GI50 (OVCAR-8 ovarian) [µM] | GI50 (EKVX NSCLC) [µM] | GI50 (NCI-H23 lung) [µM] | GI50 (A498 renal) [µM] | GI50 (HL-60(TB) leukemia) [µM] |
| --- | --- | --- | --- | --- | --- | --- | --- | --- | --- | --- | --- | --- | --- | --- | --- | --- | --- | --- | --- | --- |
| O=C1C=C(Nc2ccc(Cl)cc2C(=O)c2ccccc2)c2ccccc2C1=O | > 100 | > 100 | > 100 | > 100 | > 100 | > 100 | > 100 | > 100 | – | – | – | – | – | – | – | – | – | – | – | – |
| COc1cc(C[P+](c2ccccc2)(c2ccccc2)c2ccccc2)cc(OC)c1OC | – | > 100 | > 100 | > 100 | > 100 | > 100 | > 100 | > 100 | > 100 | – | – | – | – | – | – | – | – | – | – | – |
| COc1ccc(NC(=O)CSc2nnc(-c3ccc(NC(C)=O)cc3)o2)cc1 | 30.2 | > 100 | 50.9 | – | 28.7 | 36.6 | 43.4 | 23.2 | – | – | – | – | – | – | – | – | – | – | – | – |
| O/N=C1\CCCCC1C(NO)c1ccccc1 (configuration not stated) | > 100 | > 100 | > 100 | > 100 | > 100 | > 100 | > 100 | > 100 | > 100 | – | – | – | – | – | – | – | – | – | – | – |
| O=C(c1ccc([N+](=O)[O-])cc1[N+](=O)[O-])N(/N=C/C=C/c1ccccc1)c1nnc(-c2ccccc2)c(-c2ccccc2)n1 | 95.2 | 84.2 | 51.6 | > 100 | 71.1 | 67.8 | > 100 | 93.2 | > 100 | – | – | – | – | – | – | – | – | – | – | – |
| Cc1nc2c(Br)cc(Br)cc2c(=O)n1-c1nnc(-c2cccc(Cl)c2Cl)c(N)n1 | – | > 100 | – | > 100 | > 100 | 60.7 | > 100 | 65.5 | 87 | 3.8 | 14.3 | 19.3 | 9.39 | 42 | 26.2 | 18.7 | 22.1 | 23.4 | – | – |
| CCCCCCCC(=O)OCC1OC(n2cc(F)c(=O)[nH]c2=O)C(N)C(OC(=O)CCCCCCC)C1O (configuration not stated) | 39.1 | 40.4 | 42.3 | 32 | 31.9 | 31.6 | 34 | 35.9 | 53.5 | – | – | – | – | – | – | – | – | – | – | – |
| CC(C)C1CN(C(=O)OCc2ccccc2)C2N1C(=O)C2(C)OCc1ccccc1 (configuration not stated) | 95.8 | > 100 | 66.9 | > 100 | > 100 | > 100 | > 100 | > 100 | 66.6 | – | – | – | – | – | – | – | – | – | – | – |
| CCC(C)(C)n1c(C)nc2c1C(=O)c1ccccc1C2=O | – | > 100 | 47.9 | > 100 | 59.4 | > 100 | > 100 | 60.4 | – | – | – | – | – | – | – | – | – | – | – | – |
| O=S(=O)(OI(OI(OS(=O)(=O)C(F)(F)F)c1ccccc1)c1ccccc1)C(F)(F)F | > 100 | 91.1 | 36.5 | > 100 | 73.7 | > 100 | > 100 | – | > 100 | – | – | – | – | – | – | – | – | – | – | – |
| Nc1c(C(=O)Nc2ccccn2)sc2nc3c(cc12)C(=O)CCC3 | > 100 | > 100 | 5.27 | > 100 | 8.88 | > 100 | – | > 100 | > 100 | – | – | 0.79 | 3.24 | 1.3 | 1.11 | 6.52 | – | 3.29 | 0.345 | 0.689 |
| Cc1cc(C)nc(NS(=O)(=O)c2ccc(Nc3c4ccccc4nc4c(C(=O)N5CCN(CCO)CC5)cccc34)cc2)n1 | > 100 | > 100 | > 100 | > 100 | > 100 | > 100 | > 100 | > 100 | – | – | – | – | – | – | – | – | – | – | – | – |
| CN(C)CCNC(=O)Cc1ccccc1Nc1c(Cl)cccc1Cl | – | 34 | 36.1 | 31.9 | 31.9 | 37.1 | 43 | 33.4 | 38.2 | – | – | – | – | – | – | – | – | – | – | – |
| O=C1C/C(Br)=C\c2ccccc2-c2ccccc21 | 22.5 | 10.4 | 5.7 | 19.5 | 3.04 | 5.41 | 21.8 | 9.56 | 5.28 | – | – | – | – | – | – | – | – | – | – | – |
| O=C1c2cccc3cccc(c23)C(=O)N1CCN(CCO)CCO | 41.3 | > 100 | > 100 | > 100 | 92.2 | 35 | 90.9 | 74.8 | 56.4 | – | – | – | – | – | – | – | – | – | – | – |
| Nc1c(S(=O)(=O)c2ccc(Cl)cc2)c2nc3ccccc3nc2n2ccnc12 | – | > 100 | > 100 | > 100 | – | > 100 | > 100 | > 100 | > 100 | – | – | – | – | – | – | – | – | – | – | – |
